IC50 data for 32 molecules are collected here from patent US20130158049A1, “7-AZAINDOLE INHIBITORS OF CRAC” (Hoffmann-La Roche Inc., priority 2011, published 2013).

The term IC50 denotes the concentration at which inhibition is half-maximal. Higher therefore signals weaker potency.

In the experiment the test system is Jurkat IL-2 Production. Kind of experiment: Jurkat IL-2 Production Assay. The format is cell-based. The note with it: Homo sapiens; Jurkat cell (ATCC); PHA 5 μg/mL with 1% FBS, or PMA/Ionomycin with 30% FBS (table does not say which); incubation 18 h~20 h. As for the experimental part:
Jurkat IL-2 Production Assay
Cell: Jurkat cell (ATCC) was grown in RPMI 1640 with 10% FBS and 1% penicillin/streptomycin. The cell density was kept at 1.2˜1.8×10^6/mL in culture flask before seeding into culture plate, and the cell density in the plate was 0.5×10^6/[…]/well.
Culture media: RPMI 1640 with 1% FBS or 30% FBS for high serum assay.
Test compound: serial dilution was done in 100% DMSO, and intermediate dilution was done with RPMI 1640 medium with 1% FBS. The DMSO final concentration in culture well was 0.25%.
Stimulant: PHA (Sigma#L9017-10MG) was used for the assay with 1% FBS in culture medium, and added after 10 minutes exposure of cell to compound/DMSO. The PHA final concentration in culture well was 5 μg/mL. PMA (Sigma# P-8139 5MG)/Ionomycin (Sigma# I0634-5MG) was used for the assay with 30% FBS in culture medium, and added at same time point as the 1% FBS culture assay. The final concentration of PMA was 50 ng/mL, and Ionomycin final concentration was 500 ng/mL.
Incubation: at 37° C. with 5% CO2 and 95% humidity for 18 h˜20 h.
IC50: IC50 was calculated with the data analysis software XLfit4, General Pharmacology model 251.
`CCn1nc(-c2cccnc2)cc1-c1cnc2[nH]c(-c3c(F)cccc3F)cc2c1` [Example 4, 2-(2,6-Difluoro-phenyl)-5-(2-ethyl-5-pyridin-3-yl-2H-pyrazol-3-yl)-1H-pyrrolo[2,3-b]pyridine] displayed a half-maximal inhibitory concentration (IC50) of 134 nM.

For `Cc1cc(S(C)(=O)=O)ncc1-c1cnc2[nH]c(-c3cnccc3C)cc2c1` [Example 27, 5-(4-Methyl-6-(methylsulfonyl)pyridin-3-yl)-2-(4-methylpyridin-3-yl)-1H-pyrrolo[2,3-b]pyridine], the 50% inhibitory concentration (IC50) came out at 438 nM.

Molecule `Cn1nc(-c2cccnc2)nc1-c1cnc2[nH]c(-c3c(F)cccc3F)cc2c1` [Example 10, 2-(2,6-Difluoro-phenyl)-5-(2-methyl-5-pyridin-3-yl-2H-[1,2,4]triazol-3-yl)-1H-pyrrolo[2,3-b]pyridine] registered an IC50 of 106 nM. This IC50 lies about 4.1-fold lower than the previous one.

Consider `Cc1sc(-c2cnccn2)nc1-c1cnc2[nH]c(-c3c(F)cccc3F)cc2c1` [Example 14, 2-(2,6-Difluoro-phenyl)-5-(5-methyl-2-pyrazin-2-yl-thiazol-4-yl)-1H-pyrrolo[2,3-b]pyridine], for which the midpoint of inhibition, the IC50, lay at 36 nM.

`Cc1cc(S(C)(=O)=O)ncc1-c1cnc2[nH]c(C3CCCCC3)cc2c1` [Example 31, 2-cyclohexyl-5-(4-methyl-6-(methylsulfonyl)pyridin-3-yl)-1H-pyrrolo[2,3-b]pyridine]: half-maximal inhibition (IC50) required 107 nM. This IC50 is about 3-fold higher than that of the molecule before.

`CCn1nc(-c2cnccn2)cc1-c1cnc2[nH]c(-c3c(F)cccc3Cl)cc2c1` [Example 17, 2-(2-Chloro-6-fluoro-phenyl)-5-(2-ethyl-5-pyrazin-2-yl-2H-pyrazol-3-yl)-1H-pyrrolo[2,3-b]pyridine] displayed a concentration for half-maximal inhibition (IC50) of 15 nM.

As to `Cc1sc(-c2cccnc2)nc1-c1cnc2[nH]c(-c3c(F)cccc3F)cc2c1` [Example 5, 2-(2,6-Difluoro-phenyl)-5-(5-methyl-2-pyridin-3-yl-thiazol-4-yl)-1H-pyrrolo[2,3-b]pyridine], the IC50 was found to be 90 nM.

For `Cn1nc(C(F)(F)F)cc1-c1cnc2[nH]c(-c3c(F)cccc3Cl)cc2c1` [Example 15, 2-(2-Chloro-6-fluoro-phenyl)-5-(2-methyl-5-trifluoromethyl-2H-pyrazol-3-yl)-1H-pyrrolo[2,3-b]pyridine], 53 nM corresponded to half-maximal inhibition (IC50). This IC50 lies about 1.7-fold lower than the previous one.

`CCn1nc(-c2cnccn2)cc1-c1cnc2[nH]c(C3CCCCC3)cc2c1` [Example 33, 2-Cyclohexyl-5-(1-ethyl-3-(pyrazin-2-yl)-1H-pyrazol-5-yl)-1H-pyrrolo[2,3-b]pyridine]: it took 111 nM to reach half-maximal inhibition (IC50).

For the molecule `Cc1cc(S(=O)(=O)N(C)C)ccc1-c1cnc2[nH]c(-c3c(F)cccc3Cl)cc2c1` [Example 16, 4-[2-(2-Chloro-6-fluoro-phenyl)-1H-pyrrolo[2,3-b]pyridin-5-yl]-3,N,N-trimethyl-benzenesulfonamide], half-maximal inhibition (IC50) was put at 99 nM.

For `CCn1nc(-c2cccnc2)cc1-c1cnc2[nH]c(-c3c(C)noc3C)cc2c1` [Example 30, 2-(3,5-Dimethyl-isoxazol-4-yl)-5-(2-ethyl-5-pyridin-3-yl-2H-pyrazol-3-yl)-1H-pyrrolo[2,3-b]pyridine], half-maximal inhibition (IC50) was put at 441 nM.

For `Cc1sc(-c2ncco2)nc1-c1cnc2[nH]c(-c3c(F)cccc3F)cc2c1` [Example 8, 2-(2,6-Difluoro-phenyl)-5-(5-methyl-2-oxazol-2-yl-thiazol-4-yl)-1H-pyrrolo[2,3-b]pyridine], it took 102 nM to reach half-maximal inhibition (IC50).

The molecule `CCn1nc(-c2cnccn2)cc1-c1cnc2[nH]c(-c3cnccc3C)cc2c1` [Example 26, 5-(2-Ethyl-5-pyrazin-2-yl-2H-pyrazol-3-yl)-2-(4-methyl-pyridin-3-yl)-1H-pyrrolo[2,3-b]pyridine] returned a concentration for half-maximal inhibition (IC50) of 428 nM. Compared with the last molecule, the IC50 is about 4.2-fold higher.

The molecule `Cc1cc(C(=O)NCCO)ncc1-c1cnc2[nH]c(-c3c(F)cccc3F)cc2c1` [Example 12, 5-[2-(2,6-Difluoro-phenyl)-1H-pyrrolo[2,3-b]pyridin-5-yl]-4-methyl-pyridine-2-carboxylic acid (2-hydroxy-ethyl)-amide] yielded a half-inhibitory concentration (IC50) of 997 nM.

In turn, `COC(=O)c1ccc(-c2cnc3[nH]c(-c4c(F)cccc4F)cc3c2)c(C)c1` [Example 1, 4-[2-(2,6-Difluoro-phenyl)-1H-pyrrolo[2,3-b]pyridin-5-yl]-3-methyl-benzoic acid methyl ester] had an IC50 of 588 nM.

For the molecule `CCn1nc(-c2cccnc2)cc1-c1cnc2[nH]c(-c3cnccc3Cl)cc2c1` [Example 28, 2-(4-chloropyridin-3-yl)-5-(1-ethyl-3-(pyridin-3-yl)-1H-pyrazol-5-yl)-1H-pyrrolo[2,3-b]pyridine], it took 185 nM to reach half-maximal inhibition (IC50).

With `COc1cc(C#N)ccc1-c1cnc2[nH]c(-c3c(F)cccc3Cl)cc2c1` [Example 19, 4-[2-(2-Chloro-6-fluoro-phenyl)-1H-pyrrolo[2,3-b]pyridin-5-yl]-3-methoxy-benzonitrile], the IC50 turned out to be 35 nM.

With `Cn1nc(C(F)(F)F)cc1-c1cnc2[nH]c(-c3c(F)cccc3F)cc2c1` [Example 6, 2-(2,6-Difluoro-phenyl)-5-(2-methyl-5-trifluoromethyl-2H-pyrazol-3-yl)-1H-pyrrolo[2,3-b]pyridine], the IC50 turned out to be 113 nM.

Molecule `CCn1nc(C(F)(F)F)cc1-c1cnc2[nH]c(-c3ccncc3C)cc2c1` [Example 23, 5-(1-ethyl-3-(trifluoromethyl)-1H-pyrazol-5-yl)-2-(3-methylpyridin-4-yl)-1H-pyrrolo[2,3-b]pyridine] yielded an IC50 of 145 nM.

Molecule `CCn1nc(C(F)(F)F)cc1-c1cnc2[nH]c(-c3c(F)cccc3F)cc2c1` [Example 7, 2-(2,6-Difluoro-phenyl)-5-(2-ethyl-5-trifluoromethyl-2H-pyrazol-3-yl)-1H-pyrrolo[2,3-b]pyridine] had an IC50 of 54 nM.

As to `CCn1nc(-c2cccnc2)cc1-c1cnc2[nH]c(C3CCCCC3)cc2c1` [Example 32, 2-Cyclohexyl-5-(1-ethyl-3-(pyridin-3-yl)-1H-pyrazol-5-yl)-1H-pyrrolo[2,3-b]pyridine], half-maximal inhibition (IC50) was put at 108 nM.

Consider `CCc1sc(-c2cccnc2)nc1-c1cnc2[nH]c(-c3c(F)cccc3F)cc2c1` [Example 13, 2-(2,6-Difluoro-phenyl)-5-(5-ethyl-2-pyridin-3-yl-thiazol-4-yl)-1H-pyrrolo[2,3-b]pyridine], for which the IC50 came out at 15 nM.

Regarding `CCn1nc(-c2cccnc2)cc1-c1cnc2[nH]c(-c3ccncc3C)cc2c1` [Example 22, 5-(1-Ethyl-3-(pyridin-3-yl)-1H-pyrazol-5-yl)-2-(3-methylpyridin-4-yl)-1H-pyrrolo[2,3-b]pyridine], 163 nM corresponded to half-maximal inhibition (IC50).

`Cc1cc(S(C)(=O)=O)ncc1-c1cnc2[nH]c(-c3ccncc3C)cc2c1` [Example 24, 5-(4-Methyl-6-(methylsulfonyl)pyridin-3-yl)-2-(3-methylpyridin-4-yl)-1H-pyrrolo[2,3-b]pyridine] came in with a half-inhibitory concentration (IC50) of 248 nM. This IC50 is about 1.5-fold higher than that of the molecule before.

Molecule `Cc1cc(S(=O)(=O)N(C)C)ccc1-c1cnc2[nH]c(-c3c(F)cccc3F)cc2c1` [Example 3, 4-[2-(2,6-Difluoro-phenyl)-1H-pyrrolo[2,3-b]pyridin-5-yl]-3,N,N-trimethyl-benzenesulfonamide] came in with an IC50 of 124 nM.

Take `CNC(=O)c1cc(C)c(-c2cnc3[nH]c(-c4c(F)cccc4F)cc3c2)cn1` [Example 11, 5-[2-(2,6-Difluoro-phenyl)-1H-pyrrolo[2,3-b]pyridin-5-yl]-4-methyl-pyridine-2-carboxylic acid methylamide]: the half-inhibitory concentration (IC50) came out at 242 nM.

Take `COc1ccc(-c2cnc3[nH]c(-c4c(F)cccc4F)cc3c2)c(OC)c1` [Example 2, 2-(2,6-Difluoro-phenyl)-5-(2,4-dimethoxy-phenyl)-1H-pyrrolo[2,3-b]pyridine]: the IC50 came to 150 nM.

As for `Cc1sc(-c2cnccn2)nc1-c1cnc2[nH]c(-c3c(F)cccc3Cl)cc2c1` [Example 18, 2-(2-Chloro-6-fluoro-phenyl)-5-(5-methyl-2-pyrazin-2-yl-thiazol-4-yl)-1H-pyrrolo[2,3-b]pyridine], the IC50 stood at 39 nM.

`Cc1cc(S(C)(=O)=O)ncc1-c1cnc2[nH]c(-c3cnccc3Cl)cc2c1` [Example 29, 2-(4-Chloropyridin-3-yl)-5-(4-methyl-6-(methylsulfonyl)pyridin-3-yl)-1H-pyrrolo[2,3-b]pyridine] returned an IC50 of 275 nM.

Take `CCn1nc(-c2cccnc2)nc1-c1cnc2[nH]c(-c3c(F)cccc3F)cc2c1` [Example 9, 2-(2,6-Difluoro-phenyl)-5-(2-ethyl-5-pyridin-3-yl-2H-[1,2,4]-triazol-3-yl)-1H-pyrrolo[2,3-b]pyridine]: the IC50 worked out at 56 nM.

As for `CCn1nc(-c2cnccn2)cc1-c1cnc2[nH]c(-c3ccncc3C)cc2c1` [Example 21, 5-(2-Ethyl-5-pyrazin-2-yl-2H-pyrazol-3-yl)-2-(3-methyl-pyridin-4-yl)-1H-pyrrolo[2,3-b]pyridine], inhibition was half-maximal at 158 nM (IC50).

On to `Cc1cc(S(C)(=O)=O)ncc1-c1cnc2[nH]c(-c3c(F)cccc3Cl)cc2c1` [Example 20, 2-(2-Chloro-6-fluoro-phenyl)-5-(6-methanesulfonyl-4-methyl-pyridin-3-yl)-1H-pyrrolo[2,3-b]pyridine], for which the midpoint of inhibition, the IC50, lay at 72 nM.
